Data from patent US8697747B2, “Enhancing coagulation or reducing fibrinolysis” (THe UAB Research Foundation, priority 2009, dated 2014).

Experiments:
Format in all cases: biochemical, human
[1] = test system: pooled normal plasma; experiment: Thrombelastographic coagulation kinetics, Celite-activated normal plasma; conditions: 100 μM, mean ± SD, n=8
Procedure: (§1) Pooled normal plasma (George King Bio-Medical, Overland Park, Kans.) anticoagulated with sodium citrate was utilized for experimentation. […] Factor XIII (FXIII) deficient plasma anticoagulated with sodium citrate was also obtained from George King Bio-Medical (Overland Park, Kans.).
(§2) Plasma Sample Composition. The final volume for all subsequently described plasma sample mixtures was 359.4 μL. […] (Motterlini et al., Expert Opin Investig Drugs, 14:1305-1318 (2005), which is incorporated by reference herein in its entirety).
(§3) Clot Lifespan Model Analyses. Plasma sample mixtures were placed in a disposable cup in a computer-controlled THROMBELASTOGRAPH® hemostasis system (Model 5000, Haemoscope Corp., Niles, Ill.), with addition of CaCl2 as the last step to initiate clotting. Data were collected for 15 minutes, as normal plasma completes thrombus formation within this interval in this system (Dong et al., Eur J Pharmacol 590:99-104 (2008)).
(§4) Statistical Analyses. Data are presented as mean±SD. All conditions described were represented with n=8 experiments, as n=6-8 typically provides statistical power>0.8 in similar analyses (Nielsen et al., Acta Anaesthesiol Scand 49:222-231 (2005) and Nielsen et al., Blood Coagul Fibrinolysis 17:75-81 (2006)). Analyses of the effects of CORM-2 and iCORM-2 on thrombelastographic variables were conducted using one way analysis of variance with the Holm-Sidak test used for post hoc comparisons. Graphical representation of the data was generated with commercially available software (Origin 7.5, OriginLab Corp., Northampton, Mass.). A P value of ≦0.05 was considered significant.

[2] = test system: pooled normal plasma; experiment: Clot lifespan model (CLSM) thrombelastography with tPA, normal plasma; conditions: 100 μM
Procedure: (§5) Pooled normal plasma (George King Bio-Medical, Overland Park, Kans.) anticoagulated with sodium citrate was utilized for experimentation. […] Factor XIII (FXIII) deficient plasma anticoagulated with sodium citrate was also obtained from the same vendor.
(§6) Plasma Sample Composition. The final volume for all subsequently described plasma sample mixtures was 359.4 μL. Sample composition consisted of 316 μL of plasma; 10 μL of tissue factor (0.1% final concentration in 0.9% NaCl; Diagnostica Stago, Asnieres, France), 3.6 μL of dimethyl sulfoxide (DMSO) or DMSO with CORM-2 (Sigma-Aldrich, St. Louis, Mo.) or DMSO with inactivated CORM-2 (iCORM-2), 10 μL of tissue-type plasminogen activator (tPA, 580 U/μg, Genentech, Inc., San Francisco, Calif.) diluted with 10 mM potassium phosphate buffer (pH 7.4) for a final activity of 100 IU/mL, and 20 μL of 200 mM CaCl2. […] This concentration of CORM-2 was chosen because the concentration of CO released would be expected to be in the mid to lower ranges used in previously reported ex vivo, in vitro, and cell-based experiments (Motterlini et al. 2002; Megias et al. 2007; Chlopicki et al. 2006; Dong et al. 2008). […] (Motterlini et al. 2005). While CORM-2 decays slowly in DMSO, DMSO was added to the dry compound just prior to placement into the plasma mixture. The specific series of experiments are subsequently presented.
Concentration-Response Relationships of CORM-2 and iCORM-2 with Clot Lifespan Model (CLSM) Parameters. Normal plasma was exposed to 0, 25, 50, 100 or 200 μM CORM-2 (n=4 per concentration. Additional plasma samples were exposed to 25, 50 or 100 μM iCORM-2 (n=4 per concentration). Samples underwent CLSM analyses as subsequently described.
Comparison of the Effects of CORM-2 and iCORM-2 on CLSM Parameters in Normal Plasma. Given the results of the aforementioned experiments, additional samples of normal plasma were exposed to 0 or 100 μM of CORM-2 or iCORM-2 (n=4 per additional sample condition, n=8 per condition for final analyses). Samples underwent CLSM analyses as subsequently described.
(§7) Clot Lifespan Model Analyses. As described in Example 1, plasma sample mixtures were placed in a disposable cup in a computer-controlled THROMBELASTOGRAPH® hemostasis system (Model 5000, Haemoscope Corp., Niles, Ill.), with addition of CaCl2 as the last step to initiate clotting. Data were collected until clot lysis time occurred. […] As this model involves complete fibrinolysis, TTG is equivalent to ACL, so ACL was not presented as it provides no additional information.
(§8) Statistical Analyses. Data are presented as median (1st, 3rd quartiles). […] Nonlinear and linear analyses and curve fitting of the various CORM-2 concentrations effects on CLSM variables were performed with commercially available software (SigmaPlot 11.0, Systat Software, Inc., San Jose, Calif.). Analyses of the effects of CORM-2 and iCORM-2 on CLSM variables in normal plasma were conducted with Kruskal-Wallis one way analysis of variance on ranks, whereas Mann-Whitney rank sum tests were used to assess the effects of CORM-2 on CLSM variables in the various immunodepleted/congenitally deficient plasma types (SigmaStat 3.1, Systat Software, Inc., San Jose, Calif.). Graphical representation of the data was generated with commercially available software (SigmaPlot 11.0, Systat Software, Inc., San Jose, Calif.; CorelDRAW 12.0, Corel Corporation, Ottawa, Ontario, Canada; Origin 7.5, OriginLab Corp., Northampton, Mass.). A P value of <0.05 was considered significant.

[3] = test system: Factor XIII (FXIII) deficient plasma; experiment: Thrombelastographic coagulation kinetics, Celite-activated FXIII deficient plasma
Procedure: as §1, §2, §3, §4

[4] = test system: FXIII deficient plasma; experiment: CLSM thrombelastography with tPA, FXIII deficient plasma; conditions: 100 μM CORM-2, tPA 100 IU/mL, median, n=8
Procedure: as §5, §6
Assessment of the Effects of CORM-2 on CLSM Parameters in FXIII, PAI-1, TAFI and α2-antiplasmin Deficient Plasmas. These experiments were performed to elucidate the roles played by antifibrinolytic enzymes during CORM-2 mediated modulation of fibrinolysis. Samples of the various deficient plasmas were exposed to 0 or 100 μM of CORM-2 (n=8 per condition). Samples underwent CLSM analyses as subsequently described.
as §7, §8

[5] = 100 μM, Celite-activated FXIII deficient plasma, mean ± SD, n=8

SMILES: [C-]#[O+].[C-]#[O+].[C-]#[O+].[C-]#[O+].[C-]#[O+].[C-]#[O+].[Cl][Ru][Cl].[Cl][Ru][Cl] [CORM-2, tricarbonyldichlororuthenium (II) dimer]
- MRTG (maximum rate of thrombus generation) [1]: 13.7 ± 1.3 dynes/cm^2/sec
- TMRTG (time to maximum rate of thrombus generation) [1]: 188 ± 18 s
- TTG (total thrombus generation) [1]: 248 ± 17 dynes/cm^2
- delay of the onset of fibrinolysis vs samples not exposed ([2]; tPA): 258%
- enhancement of strength of the clot vs samples not exposed ([2]; tPA): 113%
- enhancement of the velocity of growth vs samples not exposed ([2]; tPA): 120%
- increase in CGT vs 0 μM CORM-2 ([2]; tPA): 126%
- increase in CLS vs 0 μM CORM-2 ([2]; tPA): 145%
- increase in CLT vs 0 μM CORM-2 ([2]; tPA): 143%
- CGT (clot growth time) ([2]; tPA 100 IU/mL, median, n=8): 508 s
- CLS (clot lifespan) ([2]; tPA 100 IU/mL, median, n=8): 2325 s
- CLT (clot lysis time) ([2]; tPA 100 IU/mL, median, n=8): 1768 s
- MRL (maximum rate of lysis) ([2]; tPA 100 IU/mL, median, n=8): −1.9 -dynes/cm^2/sec
- MRTG (maximum rate of thrombus generation) ([2]; tPA 100 IU/mL, median, n=8): 9.7 dynes/cm^2/sec
- TMRL (time to maximum rate of lysis) ([2]; tPA 100 IU/mL, median, n=8): 1218 s
- TMRTG (time to maximum rate of thrombus generation) ([2]; tPA 100 IU/mL, median, n=8): 155 s
- TTG (total thrombus generation) ([2]; tPA 100 IU/mL, median, n=8): 281 dynes/cm^2
- MRTG (maximum rate of thrombus generation) [3, 5]: 9.1 ± 1.2 dynes/cm^2/sec
- TMRTG (time to maximum rate of thrombus generation) [3, 5]: 296 ± 13 s
- TTG (total thrombus generation) [3, 5]: 163 ± 21 dynes/cm^2
- equivalent replacement of FXIII activity with regard to enhancement of coagulation kinetics ([3]; addition to FXIII-deficient plasma): 100%
- CGT (clot growth time) [4]: 820 s
- CLS (clot lifespan) [4]: 2258 s
- CLT (clot lysis time) [4]: 1460 s
- MRL (maximum rate of lysis) [4]: −1.0 -dynes/cm^2/sec
- MRTG (maximum rate of thrombus generation) [4]: 5.8 dynes/cm^2/sec
- TMRL (time to maximum rate of lysis) [4]: 855 s
- TMRTG (time to maximum rate of thrombus generation) [4]: 195 s
- TTG (total thrombus generation) [4]: 160 dynes/cm^2
